Values of other authors, collected in patent publication US20190374533A1, “COMPOUNDS AND METHODS FOR INHIBITING NHE-MEDIATED ANTIPORT IN THE TREATMENT OF DISORDERS ASSOCIATED WITH FLUID RETENTION OR SALT OVERLOAD AND GASTROINTESTINAL TRACT DISORDERS” (Ardelyx, Inc., priority 2008, published 2019).

Key:
NHE-1 = NHE-1 (Rattus norvegicus, UniProt P26431); details: * = from rat; read-out: IC50 or Ki, NHE-1; cited from earlier work
NHE-3 = NHE-3 (Rattus norvegicus, UniProt P26433); details: * = from rat; read-out: IC50 or Ki, NHE-3; cited from earlier work
NHE-3, sequence (P26433 29-831): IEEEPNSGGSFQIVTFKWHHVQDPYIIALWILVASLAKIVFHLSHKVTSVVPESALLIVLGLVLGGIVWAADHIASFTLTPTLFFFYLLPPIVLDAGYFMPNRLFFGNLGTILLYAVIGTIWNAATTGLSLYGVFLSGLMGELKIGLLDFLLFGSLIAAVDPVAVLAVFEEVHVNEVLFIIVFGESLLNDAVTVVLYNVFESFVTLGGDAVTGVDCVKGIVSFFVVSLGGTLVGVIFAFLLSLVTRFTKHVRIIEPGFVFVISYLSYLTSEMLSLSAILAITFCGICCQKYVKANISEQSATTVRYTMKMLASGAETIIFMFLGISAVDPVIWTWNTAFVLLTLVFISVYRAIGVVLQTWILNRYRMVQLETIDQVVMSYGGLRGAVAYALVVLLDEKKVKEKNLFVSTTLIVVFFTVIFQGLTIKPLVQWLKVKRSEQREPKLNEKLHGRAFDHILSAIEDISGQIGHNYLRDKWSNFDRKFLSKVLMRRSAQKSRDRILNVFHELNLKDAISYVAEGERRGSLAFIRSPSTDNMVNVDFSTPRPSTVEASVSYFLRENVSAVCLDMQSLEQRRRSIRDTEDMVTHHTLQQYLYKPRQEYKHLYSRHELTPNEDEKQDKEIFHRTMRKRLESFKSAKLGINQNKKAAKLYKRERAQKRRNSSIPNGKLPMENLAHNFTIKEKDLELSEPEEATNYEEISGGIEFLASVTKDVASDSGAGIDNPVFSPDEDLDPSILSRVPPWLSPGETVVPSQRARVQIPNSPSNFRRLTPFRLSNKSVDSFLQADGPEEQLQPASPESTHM

NHE-5 = molecular target: T1, NHE-5 (Homo sapiens, UniProt Q14940); details: read-out: IC50 or Ki, NHE-5; cited from earlier work
T1 sequence (Q14940 1-896): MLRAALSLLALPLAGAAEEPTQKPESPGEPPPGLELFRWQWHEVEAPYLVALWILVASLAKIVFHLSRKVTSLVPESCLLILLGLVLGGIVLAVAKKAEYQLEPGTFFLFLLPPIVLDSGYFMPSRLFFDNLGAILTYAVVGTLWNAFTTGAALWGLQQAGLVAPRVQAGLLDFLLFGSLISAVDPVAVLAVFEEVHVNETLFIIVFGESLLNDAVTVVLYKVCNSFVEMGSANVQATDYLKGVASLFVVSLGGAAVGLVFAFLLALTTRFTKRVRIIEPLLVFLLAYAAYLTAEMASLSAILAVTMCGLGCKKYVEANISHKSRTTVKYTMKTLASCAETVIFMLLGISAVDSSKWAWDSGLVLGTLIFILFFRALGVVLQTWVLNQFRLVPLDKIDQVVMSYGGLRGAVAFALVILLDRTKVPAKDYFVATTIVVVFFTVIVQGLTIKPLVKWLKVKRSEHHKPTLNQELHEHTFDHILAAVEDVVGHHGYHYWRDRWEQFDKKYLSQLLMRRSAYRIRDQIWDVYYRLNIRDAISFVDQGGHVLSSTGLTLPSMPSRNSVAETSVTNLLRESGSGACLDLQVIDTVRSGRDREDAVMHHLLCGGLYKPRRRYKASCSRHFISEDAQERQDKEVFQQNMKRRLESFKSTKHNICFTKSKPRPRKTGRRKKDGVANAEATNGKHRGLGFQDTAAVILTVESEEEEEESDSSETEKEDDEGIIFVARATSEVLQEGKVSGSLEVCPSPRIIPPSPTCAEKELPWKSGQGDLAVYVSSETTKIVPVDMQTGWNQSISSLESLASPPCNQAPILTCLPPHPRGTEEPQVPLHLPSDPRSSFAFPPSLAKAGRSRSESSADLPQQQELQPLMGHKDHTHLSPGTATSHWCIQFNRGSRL

NHE-1, sequence (P26431 whole entry): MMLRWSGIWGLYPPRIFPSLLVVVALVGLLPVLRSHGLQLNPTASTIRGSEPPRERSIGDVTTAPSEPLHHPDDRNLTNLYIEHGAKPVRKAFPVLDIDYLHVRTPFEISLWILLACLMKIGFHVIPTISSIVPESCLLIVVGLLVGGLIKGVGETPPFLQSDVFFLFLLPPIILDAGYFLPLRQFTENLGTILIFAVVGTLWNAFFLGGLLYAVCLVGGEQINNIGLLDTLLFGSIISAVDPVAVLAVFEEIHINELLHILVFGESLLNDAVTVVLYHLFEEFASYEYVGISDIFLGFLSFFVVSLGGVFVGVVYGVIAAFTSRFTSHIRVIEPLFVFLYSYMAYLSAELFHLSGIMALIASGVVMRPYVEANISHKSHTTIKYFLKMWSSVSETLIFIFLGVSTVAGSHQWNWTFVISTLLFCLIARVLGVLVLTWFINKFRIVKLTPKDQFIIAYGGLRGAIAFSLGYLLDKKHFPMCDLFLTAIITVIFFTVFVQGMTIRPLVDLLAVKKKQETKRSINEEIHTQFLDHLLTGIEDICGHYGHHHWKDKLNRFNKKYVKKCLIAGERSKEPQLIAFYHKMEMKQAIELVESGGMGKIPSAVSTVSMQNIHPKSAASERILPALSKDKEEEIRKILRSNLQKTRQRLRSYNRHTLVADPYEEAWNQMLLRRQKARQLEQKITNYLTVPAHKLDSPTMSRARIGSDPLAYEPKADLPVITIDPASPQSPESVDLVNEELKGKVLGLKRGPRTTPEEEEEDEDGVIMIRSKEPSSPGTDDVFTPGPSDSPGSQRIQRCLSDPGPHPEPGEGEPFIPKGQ

N=C(N)NC(=O)c1nc(Cl)c(N2CCCCCC2)nc1N [HMA]
IC50 (NHE-1): 13 nM
IC50 (NHE-3): 2400 nM
IC50 (NHE-5): 370 nM
